Format in all cases: in vivo
The test system of one test is Amaranthus retroflexus. Briefly: greenhouse post-emergence herbicidal test, AMARE. An excerpt: (§1) The culture containers used were plastic flowerpots containing loamy sand with approximately 3.0% of humus as the substrate. The seeds of the test plants were sown separately for each species.
(§2) For the pre-emergence treatment, the active ingredients, which had been suspended or emulsified in water, were applied directly after sowing by means of finely distributing nozzles. The containers were irrigated gently to promote germination and growth and subsequently covered with transparent plastic hoods until the test plants had rooted. This cover caused uniform germination of the test plants, unless this had been impaired by the active ingredients. For the post-emergence treatment, the test plants were first grown to a height of 3 to 15 cm, depending on the plant habit, and only then treated with the active ingredients which had been suspended or emulsified in water. For this purpose, the test plants were either sown directly and grown in the same containers, or they were first grown separately as seedlings and transplanted into the test containers a few days prior to treatment.
(§3) Depending on the species, the test plants were kept at 10 - 25° C. or 20 - 35° C., respectively. The test period extended over 2 to 4 weeks. During this time, the test plants were tended, and their response to the individual treatments was evaluated.
(§4) Evaluation was carried out using a scale from 0 to 100. 100 means no emergence of the test plants, or complete destruction of at least the aerial moieties, and 0 means no damage, or normal course of growth. A good herbicidal activity is given at values of at least 70 and a very good herbicidal activity is given at values of at least 85.

The next test concerns Chenopodium album. The test can be described thus: greenhouse post-emergence herbicidal test, CHEAL.
Text: as §1, §2, §3, §4

A further test has as its system Setaria viridis. Briefly: greenhouse post-emergence herbicidal test, SETVI.
Text: as §1, §2, §3, §4

The subject of the next test is Alopecurus myosuroides. Briefly: greenhouse post-emergence herbicidal test, ALOMY. Conditions: scale from 0 to 100.
Text: as §1, §2, §3, §4

In another test the test system is Lolium multiflorum. The test can be described thus: greenhouse post-emergence herbicidal test, LOLMU. Conditions: scale from 0 to 100.
Text: as §1, §2, §3, §4

The next test deals with Avena fatua. Briefly: greenhouse post-emergence herbicidal test, AVEFA. Conditions: application rate 2 g/ha, scale from 0 to 100.
Text: as §1, §2, §3, §4

For a further test, the system named is Echinocloa crus-galli. Briefly: greenhouse post-emergence herbicidal test, ECHCG. Conditions: scale from 0 to 100.
Text: as §1, §2, §3, §4

The mark [1] stands for this setting: application rate 16 g/ha, AMARE, scale from 0 to 100, read-out: herbicidal activity.
Where [2] appears, read: application rate 16 g/ha, CHEAL, scale from 0 to 100, read-out: herbicidal activity.
Setting [3] is: application rate 16 g/ha, SETVI, scale from 0 to 100, read-out: herbicidal activity.

The results in this text go back to US20230157289A1, “HERBICIDAL PHENYLURACILS” (BASF-SE, priority 2020, published 2023).

Read-outs that look alike come from different tables or passages of the source.

With `COC(=O)C(OC)Oc1ccccc1Oc1cc(-n2c(=O)c(C)c(C(F)(F)F)n(C)c2=O)c(F)cc1Br` (racemic) [example 11, methyl rac-2-[2-[2-bromo-5-[3,5-dimethyl-2,6-dioxo-4-(trifluoromethyl)pyrimidin-1-yl]-4-fluoro-phenoxy]phenoxy]-2-methoxy-acetate], the pest or weed control at 16 g/ha with Amaranthus retroflexus (setting [1]), in the test with Chenopodium album (setting [2]) and with Setaria viridis (setting [3]) was more than 85% throughout.
For `COC(=O)C(OC)Oc1ccccc1Oc1cc(-n2c(=O)cc(C(F)(F)F)n(C)c2=O)c(F)cc1Cl` (centres unmarked) [cmpd 3 (WO 11/137088)], the damages was determined as 75 in the test with Alopecurus myosuroides (application rate 4 g/ha); 80 in the test with Alopecurus myosuroides (application rate 8 g/ha); 60 in the test with Lolium multiflorum (application rate 4 g/ha); 75 in the test with Lolium multiflorum (application rate 8 g/ha); 65 in the test on Avena fatua; 45 in the test on Echinocloa crus-galli (application rate 1 g/ha). Besides, the damages in the test on Echinocloa crus-galli (application rate 2 g/ha) is recorded as 90.
`C#CCOC(=O)C(OC)Oc1ccccc1Oc1cc(-n2c(=O)cc(C(F)(F)F)n(C)c2=O)c(F)cc1Br` (racemic) [example 5, prop-2-ynyl rac-2-[2-[2-bromo-4-fluoro-5-[3-methyl-2,6-dioxo-4-(trifluoromethyl)pyrimidin-1-yl]phenoxy]phenoxy]-2-methoxy-acetate]: the pest or weed control at 16 g/ha in the test with Amaranthus retroflexus (setting [1]), with Chenopodium album (setting [2]) and in the test with Setaria viridis (setting [3]) was more than 85% in each case.
As to `CCOC(=O)C(F)Oc1ccccc1Oc1cc(-n2c(=O)cc(C(F)(F)F)n(C)c2=O)c(F)cc1Br` (racemic) [example 10, ethyl rac-2-[2-[2-bromo-4-fluoro-5-[3-methyl-2,6-dioxo-4-(trifluoromethyl)pyrimidin-1-yl]phenoxy]phenoxy]-2-fluoro-acetate], the pest or weed control at 16 g/ha in the test on Amaranthus retroflexus (setting [1]), with Chenopodium album (setting [2]) and in the test with Setaria viridis (setting [3]) was more than 85% in each case.
As to `COC(Oc1ccccc1Oc1cc(-n2c(=O)cc(C(F)(F)F)n(C)c2=O)c(F)cc1Br)C(=O)NS(C)(=O)=O` (racemic) [example 8, rac-2-[2-[2-bromo-4-fluoro-5-[3-methyl-2,6-dioxo-4-(trifluoromethyl)pyrimidin-1-yl]phenoxy]phenoxy]-2-methoxy-N-methylsulfonyl-acetamide], the pest or weed control at 16 g/ha in the test with Amaranthus retroflexus (setting [1]), in the test on Chenopodium album (setting [2]) and in the test on Setaria viridis (setting [3]) was more than 85% each time.
In the case of `COC(=O)C(OC)Oc1ncccc1Oc1cc(-n2c(=O)cc(C(F)(F)F)n(C)c2=O)c(F)cc1Br` (racemic) [example 12, methyl rac-2-[[3-[2-bromo-4-fluoro-5-[3-methyl-2,6-dioxo-4-(trifluoromethyl)pyrimidin-1-yl]phenoxy]-2-pyridyl]oxy]-2-methoxy-acetate], the pest or weed control at 16 g/ha in the test on Amaranthus retroflexus (setting [1]) and with Chenopodium album (setting [2]) was more than 85% in each case.
For `C=CCOC(=O)C(OC)Oc1ccccc1Oc1cc(-n2c(=O)cc(C(F)(F)F)n(C)c2=O)c(F)cc1Br` (racemic) [example 4, allyl rac-2-[2-[2-bromo-4-fluoro-5-[3-methyl-2,6-dioxo-4-(trifluoromethyl)pyrimidin-1-yl]phenoxy]phenoxy]-2-methoxy-acetate], the pest or weed control at 16 g/ha in the test with Amaranthus retroflexus (setting [1]), in the test on Chenopodium album (setting [2]) and with Setaria viridis (setting [3]) was more than 85% throughout.
With `COC(=O)C(OC)Oc1ccccc1Oc1cc(-n2c(=O)cc(C(F)(F)F)n(C)c2=O)c(F)cc1Br` (centres unmarked) [example 1, Methyl 2-[2-[2-bromo-4-fluoro-5-[3-methyl-2,6-dioxo-4-(trifluoromethyl)pyrimidin-1-yl]phenoxy]phenoxy]-2-methoxy-acetate], the pest or weed control at 16 g/ha in the test with Amaranthus retroflexus (read-out: herbicidal activity), in the test on Chenopodium album (read-out: herbicidal activity) and in the test on Setaria viridis (read-out: herbicidal activity) was more than 85% in each case. In addition, the damages is on record as 95 with Alopecurus myosuroides (application rate 4 g/ha); 95 with Alopecurus myosuroides (application rate 8 g/ha); 75 in the test with Lolium multiflorum (application rate 4 g/ha); 85 in the test with Lolium multiflorum (application rate 8 g/ha); 85 with Avena fatua; 90 in the test on Echinocloa crus-galli (application rate 1 g/ha). The same compound yielded a damages with Echinocloa crus-galli (application rate 2 g/ha) of 98.
Consider `COC(=O)C(Oc1ccccc1Oc1cc(-n2c(=O)cc(C(F)(F)F)n(C)c2=O)c(F)cc1Br)SC` (racemic) [example 9, methyl rac-2-[2-[2-bromo-4-fluoro-5-[3-methyl-2,6-dioxo-4-(trifluoromethyl)pyrimidin-1-yl]phenoxy]phenoxy]-2-methylsulfanyl-acetate], for which the pest or weed control at 16 g/ha in the test with Amaranthus retroflexus (setting [1]), in the test with Chenopodium album (setting [2]) and in the test with Setaria viridis (setting [3]) was more than 85% in each case.
In the case of `COC(=O)C(OC)Oc1ccccc1Oc1nc(-n2c(=O)cc(C(F)(F)F)n(C)c2=O)c(F)cc1Br` (centres unmarked) [cmpd I.a.646 (WO 17/202768)], the damages in the test with Alopecurus myosuroides (application rate 4 g/ha) is reported as 50; with Alopecurus myosuroides (application rate 8 g/ha) it was 70; in the test on Lolium multiflorum (application rate 4 g/ha) it was 60; in the test on Lolium multiflorum (application rate 8 g/ha), 65; in the test with Avena fatua, 40; with Echinocloa crus-galli (application rate 1 g/ha), 25. In the test with Echinocloa crus-galli (application rate 2 g/ha), the damages is recorded as 65.
Regarding `COCCOC(=O)C(OC)Oc1ccccc1Oc1cc(-n2c(=O)cc(C(F)(F)F)n(C)c2=O)c(F)cc1Br` (racemic) [example 6, 2-methoxyethyl rac-2-[2-[2-bromo-4-fluoro-5-[3-methyl-2,6-dioxo-4-(trifluoromethyl)pyrimidin-1-yl]phenoxy]phenoxy]-2-methoxy-acetate], the pest or weed control at 16 g/ha was more than 85% with Amaranthus retroflexus (setting [1]), more than 70% with Chenopodium album (setting [2]) and more than 70% in the test on Setaria viridis (setting [3]).
